Measured values from PubChem BioAssay AID248 (DTP/NCI, 2004).
Several values for one entry are separate records, joined by “and”; a condition that tells them apart may be missing. Identical values can stand only once. Inconclusive results and toxic doses are left out. No stated cut-off is given here; in the data, active means T/C of 150% or more; inactive means T/C below 125%.

Test system: L1210 leukemia ip in BDF1 mice, survival T/C
Assay: NCI In Vivo Anticancer Drug Screen. Data for tumor model L1210 Leukemia (intraperitoneal) in B6D2F1 (BDF1) mice
Conditions: endpoint: mean survival time, higher = longer survival
Procedure, shortened: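 Each compound was tested against a transplantable tumor grown in mice. The endpoint was survival, with treated animals benchmarked against vehicle controls as a simple ratio.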

[1] = dose: 100.0 mg/kg/injection, schedule: Q01DX001 (ip), vehicle: Klucel (hydroxypropylcellulose) (HPC)
[2] = dose: 200.0 mg/kg/injection, schedule: Q01DX001 (ip), vehicle: Klucel (hydroxypropylcellulose) (HPC)
[3] = dose: 400.0 mg/kg/injection, schedule: Q01DX001 (ip), vehicle: Klucel (hydroxypropylcellulose) (HPC)
[4] = dose: 100.0 mg/kg/injection, schedule: Q04DX003 (ip), vehicle: saline with Tween-80
[5] = dose: 100.0 mg/kg/injection, schedule: Q01DX001 (ip), vehicle: saline
[6] = dose: 200.0 mg/kg/injection, schedule: Q01DX001 (ip), vehicle: saline
[7] = dose: 400.0 mg/kg/injection, schedule: Q01DX001 (ip), vehicle: saline
[8] = dose: 100.0 mg/kg/injection, schedule: Q01DX009 (ip), vehicle: Klucel (hydroxypropylcellulose) (HPC)
[9] = dose: 200.0 mg/kg/injection, schedule: Q01DX009 (ip), vehicle: Klucel (hydroxypropylcellulose) (HPC)
[10] = dose: 100.0 mg/kg/injection, schedule: Q04DX003 (ip), vehicle: saline
[11] = dose: 200.0 mg/kg/injection, schedule: Q04DX003 (ip), vehicle: saline
[12] = dose: 400.0 mg/kg/injection, schedule: Q04DX003 (ip), vehicle: saline
[13] = dose: 100.0 mg/kg/injection, schedule: Q04DX002 (ip), vehicle: Klucel (hydroxypropylcellulose) (HPC)
[14] = dose: 200.0 mg/kg/injection, schedule: Q04DX002 (ip), vehicle: Klucel (hydroxypropylcellulose) (HPC)
[15] = dose: 400.0 mg/kg/injection, schedule: Q04DX002 (ip), vehicle: Klucel (hydroxypropylcellulose) (HPC)
[16] = dose: 75.0 mg/kg/injection, schedule: Q01DX001 (ip), vehicle: saline
[17] = dose: 150.0 mg/kg/injection, schedule: Q01DX001 (ip), vehicle: saline
[18] = dose: 100.0 mg/kg/injection, schedule: Q04DX003 (ip), vehicle: Klucel (hydroxypropylcellulose) (HPC)
[19] = dose: 200.0 mg/kg/injection, schedule: Q04DX003 (ip), vehicle: Klucel (hydroxypropylcellulose) (HPC)

Measured: T/C

O=C1C=CC(=O)N1CN1CCOCC1 (tested in a mixture with another compound)
inactive: dose: 6.25 mg/kg/injection, schedule: Q01DX009 (ip), vehicle: saline 92 % of control | dose: 12.5 mg/kg/injection, schedule: Q01DX009 (ip), vehicle: saline 100 % of control | [1] 103 % of control and 100 % of control | [2] 103 % of control and 100 % of control and 97 % of control | [3] 95 % of control [middle of 4 runs]

CC(C)C(C#N)(CCCCN1CCCC1)c1cccc2ccccc12 (centres undefined)
inactive: [4] 95 % of control

N#CSC/C(Br)=C/Br
inactive: dose: 6.25 mg/kg/injection, schedule: Q01DX009 (ip), vehicle: saline with Tween-80 99 % of control | dose: 12.5 mg/kg/injection, schedule: Q01DX009 (ip), vehicle: saline with Tween-80 96 % of control | dose: 25.0 mg/kg/injection, schedule: Q01DX009 (ip), vehicle: saline with Tween-80 96 % of control

Cc1ccc(N=Cc2cc(Br)cc(Br)c2O)cc1.Cc1ccc(N=Cc2cc(Br)cc(Br)c2O)cc1.[Co]
inactive: dose: 25.0 mg/kg/injection, schedule: Q04DX003 (ip), vehicle: saline with Tween-80 104 % of control | dose: 50.0 mg/kg/injection, schedule: Q04DX003 (ip), vehicle: saline with Tween-80 100 % of control | [4] 100 % of control

O=[N+]([O-])c1ccc(Oc2cccc(Cl)c2)c(Cl)c1
inactive: [5] 112 % of control | [6] 109 % of control | [7] 105 % of control

COC(=O)C(Br)C(OC)c1ccccc1 (centres undefined)
inactive: [8] 96 % of control | [9] 96 % of control | dose: 400.0 mg/kg/injection, schedule: Q01DX009 (ip), vehicle: Klucel (hydroxypropylcellulose) (HPC) 98 % of control

NC(N)=Nc1ccc(S(=O)(=O)O)cc1
inactive: [10] 103 % of control | [11] 105 % of control | [12] 103 % of control

CCCCCCc1ccccc1
inactive: dose: 100.0 mg/kg/injection, schedule: Q01DX009 (ip), vehicle: saline with Tween-80 98 % of control | [4] 105 % of control | dose: 200.0 mg/kg/injection, schedule: Q01DX009 (ip), vehicle: saline with Tween-80 98 % of control | dose: 200.0 mg/kg/injection, schedule: Q04DX003 (ip), vehicle: saline with Tween-80 94 % of control | dose: 400.0 mg/kg/injection, schedule: Q01DX009 (ip), vehicle: saline with Tween-80 88 % of control | dose: 400.0 mg/kg/injection, schedule: Q04DX003 (ip), vehicle: saline with Tween-80 95 % of control

Cc1cccc([N+](=O)[O-])c1O
inactive: [13] 99 % of control | [14] 95 % of control | [15] 87 % of control

Cc1nc(N)[nH]c(=O)c1CCCN=Cc1ccc([N+](=O)[O-])cc1
inactive: dose: 18.75 mg/kg/injection, schedule: Q01DX001 (ip), vehicle: Klucel (hydroxypropylcellulose) (HPC) 95 % of control | dose: 37.5 mg/kg/injection, schedule: Q01DX001 (ip), vehicle: Klucel (hydroxypropylcellulose) (HPC) 101 % of control | dose: 75.0 mg/kg/injection, schedule: Q01DX001 (ip), vehicle: Klucel (hydroxypropylcellulose) (HPC) 101 % of control

CC(C)CC(CC(C)C)C(=O)C1C2CCC(O2)C1C(=O)C(CC(C)C)CC(C)C (centres undefined)
inactive: dose: 6.25 mg/kg/injection, schedule: Q04DX002 (ip), vehicle: saline with Tween-80 94 % of control | dose: 12.5 mg/kg/injection, schedule: Q04DX002 (ip), vehicle: saline with Tween-80 94 % of control | dose: 25.0 mg/kg/injection, schedule: Q04DX002 (ip), vehicle: saline with Tween-80 86 % of control

CCC(COC(=O)c1ccc([N+](=O)[O-])cc1)NCCC1CCCCC1 (centres undefined)
inactive: [16] 101 % of control | [17] 104 % of control | dose: 300.0 mg/kg/injection, schedule: Q01DX001 (ip), vehicle: saline 103 % of control

CN(C)N=Nc1nn(C2OC(CO)C(O)C2O)cc1C(N)=O (centres undefined)
inactive: dose: 100.0 mg/kg/injection, schedule: Q01DX005 (ip), vehicle: saline 121 % of control | dose: 200.0 mg/kg/injection, schedule: Q01DX005 (ip), vehicle: saline 113 % of control

C[N+](C)(C)C1CCCCCCC1
inactive: [16] 96 % of control | [17] 108 % of control

O=[N+]([O-])c1ccc(/C=C/c2ncc[nH]2)o1
inactive: [18] 92 % of control | [19] 92 % of control

CCCCNC(=O)Nc1cc(C)ccc1Cl
inactive: [13] 115 % of control | [14] 97 % of control | [15] 105 % of control

COC(OC)c1nc(N)[nH]c(=O)c1Cc1ccc([N+](=O)[O-])cc1
inactive: [1] 110 % of control | [2] 102 % of control | [3] 96 % of control

CC(=O)Nc1ccc(NC(=O)c2ccc(C(=O)Nc3ccc(NC(C)=O)cc3)cc2)cc1
inactive: dose: 100.0 mg/kg/injection, schedule: Q01DX001 (ip), vehicle: other 98 % of control | dose: 200.0 mg/kg/injection, schedule: Q01DX001 (ip), vehicle: other 93 % of control | dose: 400.0 mg/kg/injection, schedule: Q01DX001 (ip), vehicle: other 96 % of control

C=CC(=O)NC(C)=O
inactive: dose: 12.5 mg/kg/injection, schedule: Q04DX002 (ip), vehicle: Klucel (hydroxypropylcellulose) (HPC) 103 % of control | dose: 25.0 mg/kg/injection, schedule: Q04DX002 (ip), vehicle: Klucel (hydroxypropylcellulose) (HPC) 92 % of control | dose: 50.0 mg/kg/injection, schedule: Q04DX002 (ip), vehicle: Klucel (hydroxypropylcellulose) (HPC) 95 % of control

S=C(S)N1CCOCC1
inactive: dose: 50.0 mg/kg/injection, schedule: Q01DX009 (ip), vehicle: saline sonified 104 % of control | [5] 105 % of control | dose: 100.0 mg/kg/injection, schedule: Q01DX009 (ip), vehicle: saline sonified 100 % of control | dose: 100.0 mg/kg/injection, schedule: Q01DX009 (ip), vehicle: saline 98 % of control | [10] 93 % of control | [6] 97 % of control | dose: 200.0 mg/kg/injection, schedule: Q01DX009 (ip), vehicle: saline sonified 94 % of control | dose: 200.0 mg/kg/injection, schedule: Q01DX009 (ip), vehicle: saline 106 % of control | [11] 97 % of control | dose: 400.0 mg/kg/injection, schedule: Q01DX009 (ip), vehicle: saline 96 % of control | [12] 95 % of control

O=C(O)CCSSCCC(=O)O
inactive: dose: 50.0 mg/kg/injection, schedule: Q04DX003 (ip), vehicle: Klucel (hydroxypropylcellulose) (HPC) 103 % of control | [8] 95 % of control | [18] 86 % of control | [9] 87 % of control | [19] 86 % of control

CC(=O)C1(C)OC(c2ccccc2)=NC1=O (centres undefined)
inactive: [5] 104 % of control | [6] 93 % of control | [7] 115 % of control

O=C(COc1cc(Cl)c(Cl)cc1Cl)Nc1ccc([N+](=O)[O-])cc1Cl
inactive: dose: 100.0 mg/kg/injection, schedule: Q04DX002 (ip), vehicle: saline with Tween-80 102 % of control | dose: 200.0 mg/kg/injection, schedule: Q04DX002 (ip), vehicle: saline with Tween-80 109 % of control | dose: 400.0 mg/kg/injection, schedule: Q04DX002 (ip), vehicle: saline with Tween-80 98 % of control
